Where two headings read alike, the source gives them in different places.
Experiments:
[1] = cited from earlier work
[2] = system: herpes simplex virus infection; experiment: Herpes simplex blister outbreak in two subjects (Example 6); format: in vivo, human; conditions: same two subjects
Description: Two females ([…]) with a chronic herpes simplex virus infection with frequent outbreaks of blisters on their lips ingested 1000 ml of the water-soluble ginger extract produced according to Example 1 while acutely suffering from large painful blisters.
For past outbreaks, both subjects tried multiple remedies, both pharmaceutical and natural, to treat the blisters. They include Abriva®, tea tree oil, toothpaste, lysine, acyclovir, topical hydrogen peroxide, Vaseline® and Aquafor®.

## CCCCC/C=C/C(=O)CCc1ccc(O)c(OC)c1 [Example 6-shogoal, 6-shogoal]
[1]; pH 2 HCl buffer, n = 2
  Solubility, pH 2 - HCl buffer: <10 μM
[1]; pH 4 citrate buffer, n = 2
  Solubility, pH 4 - citrate buffer: <10 μM
[1]; pH 7.4 phosphate buffer, n = 2
  Solubility, pH 7.4 - phosphate buffer: <10 μM

## CCCCCCC[C@H](O)CC(=O)CCc1ccc(O)c(OC)c1 [Example 8-gingerol, 8-gingerol]
[1]; pH 2
  Solubility, pH 2 - HCl buffer: >100 μM
[1]; pH 4
  Solubility, pH 4 - citrate buffer: >100 μM
[1]; pH 7.4
  Solubility, pH 7.4 - phosphate buffer: >100 μM

## OO [topical hydrogen peroxide, hydrogen peroxide]
[2]
  Relief or healing of blisters in past outbreaks: None of those remedies provided any noticeable immediate relief or greater healing of the symptoms

## CCCCC[C@H](O)CC(=O)CCc1ccc(O)c(OC)c1 [Example 6-gingerol, 6-gingerol]
[1]; pH 2
  Solubility, pH 2 - HCl buffer: >100 μM
[1]; pH 4
  Solubility, pH 4 - citrate buffer: >100 μM
[1]; pH 7.4
  Solubility, pH 7.4 - phosphate buffer: >100 μM

## Nc1nc2c(ncn2COCCO)c(=O)[nH]1 [acyclovir]
[2]
  Relief or healing of blisters in past outbreaks: None of those remedies provided any noticeable immediate relief or greater healing of the symptoms

## NCCCC[C@H](N)C(=O)O [lysine]
[2]
  Relief or healing of blisters in past outbreaks: None of those remedies provided any noticeable immediate relief or greater healing of the symptoms

## CCCCCCCCC[C@H](O)CC(=O)CCc1ccc(O)c(OC)c1 [Example 10-gingerol, 10-gingerol]
[1]; pH 2 HCl buffer, n = 2
  Solubility, pH 2 - HCl buffer: <10 μM
[1]; pH 4 citrate buffer, n = 2
  Solubility, pH 4 - citrate buffer: <10 μM
[1]; pH 7.4 phosphate buffer, n = 2
  Solubility, pH 7.4 - phosphate buffer: <10 μM
